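These data come from cells grown in 96-well plates and exposed to compound for 48 hours at five concentrations. TGI marks complete inhibition of growth.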
Columns and labels:
Assay in all cases: NCI anticancer screen, dose series, 48 h
CCRF-CEM leukemia = system: CCRF-CEM leukemia
PC-3 prostate = system: PC-3 prostate
NCI/ADR-RES ovarian = system: NCI/ADR-RES ovarian
OVCAR-5 ovarian = system: OVCAR-5 ovarian
MDA-N = system: MDA-N
RPMI-8226 leukemia = system: RPMI-8226 leukemia
SF-295 CNS = system: SF-295 CNS
SK-MEL-28 melanoma = system: SK-MEL-28 melanoma
786-0 renal = system: 786-0 renal
SK-MEL-5 melanoma = system: SK-MEL-5 melanoma
DU-145 prostate = system: DU-145 prostate
HT29 colon = system: HT29 colon
UACC-257 melanoma = system: UACC-257 melanoma
HCT-116 colon = system: HCT-116 colon
M14 melanoma = system: M14 melanoma
MDA-MB-231 breast = system: MDA-MB-231 breast
U251 CNS = system: U251 CNS
SK-MEL-2 melanoma = system: SK-MEL-2 melanoma
IGROV1 ovarian = system: IGROV1 ovarian
NCI-H226 lung = system: NCI-H226 lung
SNB-75 CNS = system: SNB-75 CNS
MALME-3M melanoma = system: MALME-3M melanoma
SF-268 CNS = system: SF-268 CNS
OVCAR-3 ovarian = system: OVCAR-3 ovarian
UACC-62 melanoma = system: UACC-62 melanoma
MDA-MB-435 = system: MDA-MB-435
BT-549 breast = system: BT-549 breast
SN12C renal = system: SN12C renal
HL-60(TB) leukemia = system: HL-60(TB) leukemia
COLO 205 colon = system: COLO 205 colon
SNB-19 CNS = system: SNB-19 CNS
HOP-62 NSCLC = system: HOP-62 NSCLC
K-562 leukemia = system: K-562 leukemia
ACHN renal = system: ACHN renal
OVCAR-8 ovarian = system: OVCAR-8 ovarian
UO-31 renal = system: UO-31 renal
SK-OV-3 ovarian = system: SK-OV-3 ovarian
NCI-H23 lung = system: NCI-H23 lung
HS 578T breast = system: HS 578T breast
SR leukemia = system: SR leukemia
HCC-2998 colon = system: HCC-2998 colon
NCI-H460 lung = system: NCI-H460 lung
MCF7 breast = system: MCF7 breast
A549 NSCLC = system: A549 NSCLC
SW-620 colon = system: SW-620 colon
HCT-15 colon = system: HCT-15 colon
KM12 colon = system: KM12 colon
OVCAR-4 ovarian = system: OVCAR-4 ovarian
A498 renal = system: A498 renal
HOP-92 NSCLC = system: HOP-92 NSCLC
TK-10 renal = system: TK-10 renal
NCI-H522 lung = system: NCI-H522 lung
T-47D breast = system: T-47D breast
LOX IMVI melanoma = system: LOX IMVI melanoma
CAKI-1 renal = system: CAKI-1 renal
RXF 393 renal = system: RXF 393 renal
EKVX NSCLC = system: EKVX NSCLC
MOLT-4 leukemia = system: MOLT-4 leukemia
SF-539 CNS = system: SF-539 CNS

**Q.** Which results are given for `CC(C)C(=O)C(C)(C)CCc1ccccn1`?
**A.** TGI (CCRF-CEM leukemia): > 100 µM; TGI (PC-3 prostate): > 100 µM; TGI (NCI/ADR-RES ovarian): > 100 µM; TGI (OVCAR-5 ovarian): > 100 µM; TGI (MDA-N): > 100 µM; TGI (RPMI-8226 leukemia): > 100 µM; TGI (SF-295 CNS): > 100 µM; TGI (SK-MEL-28 melanoma): > 100 µM; TGI (786-0 renal): > 100 µM; TGI (SK-MEL-5 melanoma): > 100 µM; TGI (DU-145 prostate): > 100 µM; TGI (HT29 colon): > 100 µM; TGI (UACC-257 melanoma): > 100 µM; TGI (HCT-116 colon): > 100 µM; TGI (M14 melanoma): > 100 µM; TGI (MDA-MB-231 breast): > 100 µM; TGI (U251 CNS): > 100 µM; TGI (SK-MEL-2 melanoma): > 100 µM; TGI (IGROV1 ovarian): > 100 µM; TGI (NCI-H226 lung): > 100 µM; TGI (SNB-75 CNS): > 100 µM; TGI (MALME-3M melanoma): > 100 µM; TGI (SF-268 CNS): > 100 µM; TGI (OVCAR-3 ovarian): > 100 µM; TGI (UACC-62 melanoma): > 100 µM; TGI (MDA-MB-435): > 100 µM; TGI (BT-549 breast): > 100 µM; TGI (SN12C renal): > 100 µM; TGI (HL-60(TB) leukemia): > 100 µM; TGI (COLO 205 colon): > 100 µM; TGI (SNB-19 CNS): > 100 µM; TGI (HOP-62 NSCLC): > 100 µM; TGI (K-562 leukemia): > 100 µM; TGI (ACHN renal): > 100 µM; TGI (OVCAR-8 ovarian): > 100 µM; TGI (UO-31 renal): > 100 µM; TGI (SK-OV-3 ovarian): > 100 µM; TGI (NCI-H23 lung): > 100 µM; TGI (HS 578T breast): > 100 µM; TGI (SR leukemia): > 100 µM; TGI (HCC-2998 colon): > 100 µM; TGI (NCI-H460 lung): > 100 µM; TGI (MCF7 breast): > 100 µM; TGI (A549 NSCLC): > 100 µM; TGI (SW-620 colon): > 100 µM; TGI (HCT-15 colon): > 100 µM; TGI (KM12 colon): > 100 µM; TGI (OVCAR-4 ovarian): > 100 µM; TGI (A498 renal): > 100 µM; TGI (HOP-92 NSCLC): > 100 µM; TGI (TK-10 renal): > 100 µM; TGI (NCI-H522 lung): > 100 µM; TGI (T-47D breast): > 100 µM; TGI (LOX IMVI melanoma): > 100 µM; TGI (CAKI-1 renal): > 100 µM; TGI (RXF 393 renal): > 100 µM; TGI (EKVX NSCLC): > 100 µM

**Q.** Which results are given for `COc1ccccc1C1Nn2c(nc3ccccc3c2=O)N1c1ccc(C)cc1` (stereo not given)?
**A.** TGI (CCRF-CEM leukemia): 24.7 µM; TGI (PC-3 prostate): 10.8 µM; TGI (NCI/ADR-RES ovarian): 23.6 µM; TGI (OVCAR-5 ovarian): 26.6 µM; TGI (MDA-N): 20.9 µM; TGI (RPMI-8226 leukemia): 25.9 µM; TGI (SF-295 CNS): 17.8 µM; TGI (SK-MEL-28 melanoma): 20.3 µM; TGI (786-0 renal): 8.37 µM; TGI (SK-MEL-5 melanoma): 22.5 µM; TGI (DU-145 prostate): 28.2 µM; TGI (HT29 colon): 29.5 µM; TGI (UACC-257 melanoma): 43.3 µM; TGI (HCT-116 colon): 16 µM; TGI (M14 melanoma): 26.4 µM; TGI (MDA-MB-231 breast): 18.3 µM; TGI (U251 CNS): 6.68 µM; TGI (SK-MEL-2 melanoma): 25.3 µM; TGI (IGROV1 ovarian): 19.8 µM; TGI (NCI-H226 lung): 9.94 µM; TGI (SNB-75 CNS): 30.5 µM; TGI (MALME-3M melanoma): 38.7 µM; TGI (SF-268 CNS): 25.1 µM; TGI (OVCAR-3 ovarian): 18.6 µM; TGI (UACC-62 melanoma): 22.2 µM; TGI (MDA-MB-435): 22.7 µM; TGI (BT-549 breast): 68.6 µM; TGI (SN12C renal): 21.7 µM; TGI (HL-60(TB) leukemia): 49.1 µM; TGI (COLO 205 colon): 21.2 µM; TGI (MOLT-4 leukemia): 11.4 µM; TGI (SNB-19 CNS): 21.2 µM; TGI (HOP-62 NSCLC): 20.2 µM; TGI (K-562 leukemia): 33.8 µM; TGI (ACHN renal): 16.7 µM; TGI (OVCAR-8 ovarian): 17 µM; TGI (UO-31 renal): 21.2 µM; TGI (SK-OV-3 ovarian): 15.7 µM; TGI (NCI-H23 lung): 29.3 µM; TGI (HS 578T breast): 27.9 µM; TGI (SR leukemia): 6.43 µM; TGI (HCC-2998 colon): 17.5 µM; TGI (NCI-H460 lung): 16.3 µM; TGI (MCF7 breast): 26.3 µM; TGI (A549 NSCLC): 19.7 µM; TGI (SW-620 colon): 18.2 µM; TGI (HCT-15 colon): 16.9 µM; TGI (KM12 colon): 60.3 µM; TGI (OVCAR-4 ovarian): 11.9 µM; TGI (HOP-92 NSCLC): 23.1 µM; TGI (TK-10 renal): 22.7 µM; TGI (NCI-H522 lung): 28.5 µM; TGI (T-47D breast): 21 µM; TGI (SF-539 CNS): 12.1 µM; TGI (LOX IMVI melanoma): 20.8 µM; TGI (CAKI-1 renal): 24.1 µM; TGI (RXF 393 renal): 24 µM; TGI (EKVX NSCLC): 34.6 µM

Source: PubChem BioAssay (NCI)
